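Compound exposure: 48 hours, 5 concentrations, 96-well plates. GI50 marks 50% less growth.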 Activity calls are given as the source filed them. Rule as the data show it: active = GI50 up to about 1.1 µM and inactive = higher.
Legend:
Assay in all cases: DTP human tumour cell line panel, 48 h
RXF 393 = tested on: RXF 393
MOLT-4 = tested on: MOLT-4
OVCAR-8 = tested on: OVCAR-8
NCI-H460 = tested on: NCI-H460
SF-539 = tested on: SF-539
Hs-578T = tested on: Hs-578T
SN12C = tested on: SN12C
MDA-MB-231 = tested on: MDA-MB-231
SR = tested on: SR
OVCAR-5 = tested on: OVCAR-5
HCT-116 = tested on: HCT-116
NCI/ADR-RES = tested on: NCI/ADR-RES
SF-268 = tested on: SF-268
DU-145 = tested on: DU-145
HCT-15 = tested on: HCT-15
HCC 2998 = tested on: HCC 2998
UACC-62 = tested on: UACC-62
K562 = tested on: K562
MCF7 = tested on: MCF7
NCI-H522 = tested on: NCI-H522

Structure (SMILES) | GI50 (RXF 393) | GI50 (MOLT-4) | GI50 (OVCAR-8) | GI50 (NCI-H460) | GI50 (SF-539) | GI50 (Hs-578T) | GI50 (SN12C) | GI50 (MDA-MB-231) | GI50 (SR) | GI50 (OVCAR-5) | GI50 (HCT-116) | GI50 (NCI/ADR-RES) | GI50 (SF-268) | GI50 (DU-145) | GI50 (HCT-15) [µM] | GI50 (HCC 2998) | GI50 (UACC-62) | GI50 (K562) | GI50 (MCF7) | GI50 (NCI-H522)
CCOC(=O)c1cc(Br)c(-c2onc(C)c2Br)[nH]1 | 16.7 µM (inactive) | > 100 µM (inactive) | 27.6 µM (inactive) | 65.6 µM (inactive) | 31.6 µM (inactive) | 26.7 µM (inactive) | 80.7 µM (inactive) | 17.1 µM (inactive) | > 100 µM (inactive) | > 100 µM (inactive) | 28.8 µM (inactive) | 40.6 µM (inactive) | 41.4 µM (inactive) | > 100 µM (inactive) | > 100 | 53.7 µM (inactive) | 36.9 µM (inactive) | > 100 µM (inactive) | > 100 µM (inactive) | –
COc1cc(C(c2ccc3c(c2)OCO3)C2SCCCS2)cc(OC)c1OC (stereo not drawn) | 1.35 µM (inactive) | 2.87 µM (inactive) | 4.71 µM (inactive) | 1.58 µM (inactive) | – | 2.33 µM (inactive) | 2.51 µM (inactive) | 2.3 µM (inactive) | 0.332 µM (active) | 4.81 µM (inactive) | 2.59 µM (inactive) | 2.15 µM (inactive) | 6.21 µM (inactive) | 3.03 µM (inactive) | 2.02 | 2.99 µM (inactive) | 2.75 µM (inactive) | 1.85 µM (inactive) | 2.62 µM (inactive) | 2.11 µM (inactive)
CC(C)Cn1cnc2c(SCc3ccccn3)nc(N)nc21 | > 100 µM (inactive) | – | > 100 µM (inactive) | > 100 µM (inactive) | – | > 100 µM (inactive) | > 100 µM (inactive) | > 100 µM (inactive) | > 100 µM (inactive) | > 100 µM (inactive) | > 100 µM (inactive) | > 100 µM (inactive) | > 100 µM (inactive) | > 100 µM (inactive) | > 100 | > 100 µM (inactive) | > 100 µM (inactive) | > 100 µM (inactive) | > 100 µM (inactive) | > 100 µM (inactive)
O=C(O)C1C2CC3C(OC(=O)C31)C2Br (stereo not drawn) | > 100 µM (inactive) | > 39.5 µM (inactive) | > 100 µM (inactive) | > 100 µM (inactive) | > 100 µM (inactive) | > 100 µM (inactive) | > 100 µM (inactive) | > 100 µM (inactive) | 0.432 µM (active) | > 100 µM (inactive) | > 100 µM (inactive) | > 100 µM (inactive) | > 100 µM (inactive) | > 100 µM (inactive) | > 100 | – | > 100 µM (inactive) | > 47.8 µM (inactive) | > 100 µM (inactive) | > 100 µM (inactive)
O=P(O)(O)OC1O[C@H](CO)[C@H](O)[C@H](O)[C@H]1O (stereo partly drawn) | > 100 µM (inactive) | – | > 100 µM (inactive) | > 100 µM (inactive) | – | > 100 µM (inactive) | > 100 µM (inactive) | > 100 µM (inactive) | > 100 µM (inactive) | > 100 µM (inactive) | > 100 µM (inactive) | > 100 µM (inactive) | > 100 µM (inactive) | > 100 µM (inactive) | > 100 | > 100 µM (inactive) | > 100 µM (inactive) | > 100 µM (inactive) | > 100 µM (inactive) | > 100 µM (inactive)
Cc1ccc(S(=O)(=O)NC(=O)NC(CC(N)=O)C(=O)O)cc1 (stereo not drawn) | > 100 µM (inactive) | > 100 µM (inactive) | > 100 µM (inactive) | > 100 µM (inactive) | > 100 µM (inactive) | > 100 µM (inactive) | > 100 µM (inactive) | > 100 µM (inactive) | > 100 µM (inactive) | > 100 µM (inactive) | > 100 µM (inactive) | > 100 µM (inactive) | > 100 µM (inactive) | > 100 µM (inactive) | > 100 | – | > 100 µM (inactive) | > 100 µM (inactive) | > 100 µM (inactive) | > 100 µM (inactive)
CC(=N\N=C\c1ccccn1)/C(C)=N/N=C(C)/C(C)=N/N=C(C)/C(C)=N/N=C/c1ccccn1 | > 100 µM (inactive) | > 100 µM (inactive) | > 100 µM (inactive) | > 100 µM (inactive) | > 100 µM (inactive) | > 100 µM (inactive) | > 100 µM (inactive) | > 100 µM (inactive) | > 100 µM (inactive) | > 100 µM (inactive) | > 100 µM (inactive) | > 100 µM (inactive) | > 100 µM (inactive) | > 100 µM (inactive) | > 100 | > 100 µM (inactive) | – | > 100 µM (inactive) | > 100 µM (inactive) | > 100 µM (inactive)
COC(=O)c1nc2c(C)c(O)c(O)c([C@H](C)CCC=C(C)C)c2o1 | 21.4 µM (inactive) | 24.9 µM (inactive) | 38.5 µM (inactive) | 46.5 µM (inactive) | 20 µM (inactive) | 30.5 µM (inactive) | – | 45.1 µM (inactive) | 7 µM (inactive) | 58.6 µM (inactive) | 8.34 µM (inactive) | 25.2 µM (inactive) | 33.3 µM (inactive) | 65.5 µM (inactive) | 14 | 30.1 µM (inactive) | > 10 µM (inactive) | 50.6 µM (inactive) | 36.3 µM (inactive) | –
CN(C(=O)[C@H](NC(=O)OCc1ccccc1)c1ccccc1)C1CCCCC1N1CCCC1 (stereo partly drawn) | 87.3 µM (inactive) | 23.7 µM (inactive) | > 100 µM (inactive) | 40.6 µM (inactive) | – | 19.6 µM (inactive) | > 100 µM (inactive) | > 100 µM (inactive) | 20.7 µM (inactive) | > 100 µM (inactive) | 69.2 µM (inactive) | > 100 µM (inactive) | 62.4 µM (inactive) | > 100 µM (inactive) | > 100 | – | > 100 µM (inactive) | 29 µM (inactive) | 98.2 µM (inactive) | 43.9 µM (inactive)
CCc1nnc(S)n1/N=C\c1ccc(-c2ccccc2[N+](=O)[O-])o1 | 63.5 µM (inactive) | 19.4 µM (inactive) | 33.1 µM (inactive) | – | 29.8 µM (inactive) | 37.4 µM (inactive) | 47.3 µM (inactive) | 47.2 µM (inactive) | 16.9 µM (inactive) | 50.7 µM (inactive) | 32.3 µM (inactive) | 26.3 µM (inactive) | 36.7 µM (inactive) | 53.5 µM (inactive) | 30.3 | – | 37.6 µM (inactive) | 27.9 µM (inactive) | 19.9 µM (inactive) | 31.6 µM (inactive)
Cc1c(C)c(S(=O)(=O)N(CCCCCON)OCCCN)c(C)c2c1OC(C)(C)CC2 | 12.3 µM (inactive) | 4.94 µM (inactive) | 11 µM (inactive) | 9.93 µM (inactive) | 15.2 µM (inactive) | 19.3 µM (inactive) | 15.4 µM (inactive) | 15.7 µM (inactive) | 2.71 µM (inactive) | 14.9 µM (inactive) | 14.8 µM (inactive) | 15.9 µM (inactive) | 16.8 µM (inactive) | 0.883 µM (active) | 15.2 | – | 14.3 µM (inactive) | 3.94 µM (inactive) | 8.18 µM (inactive) | 17.7 µM (inactive)
O=S1(=O)c2ccccc2NC(=S)CC1c1ccccc1 (stereo not drawn) | > 100 µM (inactive) | > 100 µM (inactive) | 72.9 µM (inactive) | > 100 µM (inactive) | – | > 100 µM (inactive) | > 100 µM (inactive) | > 100 µM (inactive) | > 100 µM (inactive) | > 100 µM (inactive) | > 100 µM (inactive) | > 100 µM (inactive) | > 100 µM (inactive) | > 100 µM (inactive) | > 100 | – | > 100 µM (inactive) | > 100 µM (inactive) | > 100 µM (inactive) | > 100 µM (inactive)
OCC1OC(n2cnc3c(/C=C(/O)c4ccccc4)ncnc32)C(O)C1O (stereo not drawn) | 4.12 µM (inactive) | 1.71 µM (inactive) | 2.17 µM (inactive) | 0.594 µM (active) | 4.93 µM (inactive) | 14.4 µM (inactive) | 3.19 µM (inactive) | 1.64 µM (inactive) | 1.35 µM (inactive) | 3.98 µM (inactive) | 1.55 µM (inactive) | 2.11 µM (inactive) | 5.78 µM (inactive) | 1.61 µM (inactive) | 1.05 | – | 8.3 µM (inactive) | 2.83 µM (inactive) | 3.8 µM (inactive) | 2.16 µM (inactive)
COc1cc(/C=C/c2ccc(OC)c(OC)c2)cc(OC)c1 [(E)-3,4,3',5'-TETRAMETHOXYSTILBENE] | 19.6 µM (inactive) | 46.6 µM (inactive) | 39.6 µM (inactive) | 22.2 µM (inactive) | 41.3 µM (inactive) | 25.8 µM (inactive) | 31.3 µM (inactive) | 22.9 µM (inactive) | 30.9 µM (inactive) | 39.8 µM (inactive) | 23.1 µM (inactive) | 20.9 µM (inactive) | 39.5 µM (inactive) | 45.2 µM (inactive) | 7.08 | – | 19.8 µM (inactive) | 41.1 µM (inactive) | 57 µM (inactive) | 18.8 µM (inactive)
CN(Cc1cnc2nc(N)nc(N)c2n1)c1ccc(C(=O)NC(CO)CCCO)cc1 (stereo not drawn) | > 100 µM (inactive) | > 100 µM (inactive) | > 100 µM (inactive) | > 100 µM (inactive) | > 100 µM (inactive) | > 100 µM (inactive) | > 100 µM (inactive) | > 100 µM (inactive) | > 100 µM (inactive) | > 100 µM (inactive) | > 100 µM (inactive) | > 100 µM (inactive) | > 100 µM (inactive) | > 100 µM (inactive) | > 100 | – | > 100 µM (inactive) | > 100 µM (inactive) | > 100 µM (inactive) | –

— ChEMBL document CHEMBL1201862, “PubChem BioAssay data set” (2004)
